Consider one molecule from EP0496332A1, “Alpha-aminoquinolinoyl-[3]-penicillines, process for their preparation and their use as antibacterial agents” (ARZNEIMITTELWERK DRESDEN GmbH, priority 1991, dated 1992).

Assay in all cases: In-vitro test, inhibitory concentration by dilution series
Common to all, as to format: cell-based

In test [1] the test system is Klebsiella pneumoniae SG 117. Conditions: SG117; VII = Klebsiella pneumoniae SG 117; step = concentration with no visible growth; read-out: Hemmkonzentration nach Verdünnung (Verdünnungsreihe) (converted). The source says: (§1) Die antibiotische Wirksamkeit erfindungsgemäßer Verbindungen wurde in der üblichen Weise durch Ermittlung der Hemmkonzentrationen nach Verdünnung ermittelt.
(§2) Die erhaltenen Ergebnisse sind in der nachstehenden Tabelle zusammengefaßt.

In test [2] the test system is Salmonella gallinarium ATCC 9184. Conditions: ATCC9184; VI = Salmonella gallinarium ATCC 9184; step = concentration with no visible growth; read-out: Hemmkonzentration nach Verdünnung (Verdünnungsreihe) (converted).
From the text: as §1, §2

In a further test the test system is Enterokokken. To be noted: XI = Enterokokken, Laborstämme; step = concentration with no visible growth; read-out: Hemmkonzentration nach Verdünnung (Verdünnungsreihe) (converted).
From the text: as §1, §2

The test system of test [3] is Serratia marcescens SG 621. Conditions: SG621; VIII = Serratia marcescens SG 621; step = concentration with no visible growth; read-out: Hemmkonzentration nach Verdünnung (Verdünnungsreihe) (converted).
From the text: as §1, §2

The test system of the next test is Escherichia coli. Conditions: XII = Escherichia coli, Laborstämme; step = concentration with no visible growth; read-out: Hemmkonzentration nach Verdünnung (Verdünnungsreihe) (converted).
From the text: as §1, §2

The test system of test [4] is Staphylococcus epidermidis. Conditions: X = Staphylococcus epidermidis, Laborstämme; step = concentration with no visible growth; read-out: Hemmkonzentration nach Verdünnung (Verdünnungsreihe) (converted).
From the text: as §1, §2

A further test concerns Proteus vulgaris OX 19. To be noted: OX19; III = Proteus vulgaris OX 19; step = concentration with no visible growth; read-out: Hemmkonzentration nach Verdünnung (Verdünnungsreihe) (converted).
From the text: as §1, §2

Test [5] deals with Staphylococcus aureus SG 511. Conditions: SG511; II = Staphylococcus aureus SG 511; step = concentration with no visible growth; read-out: Hemmkonzentration nach Verdünnung (Verdünnungsreihe) (converted).
From the text: as §1, §2

The next test concerns Citrobacter freudii. Conditions: XIV = Citrobacter freudii, Laborstämme; step = concentration with no visible growth; read-out: Hemmkonzentration nach Verdünnung (Verdünnungsreihe) (converted).
From the text: as §1, §2

In the next test the test system is Enterobacter cloacae. To be noted: XIII = Enterobacter cloacae, Laborstämme; step = concentration with no visible growth; read-out: Hemmkonzentration nach Verdünnung (Verdünnungsreihe) (converted).
From the text: as §1, §2

For test [6], the system named is Pseudomonas aeruginosa SG 137. Conditions: SG137; V = Pseudomonas aeruginosa SG 137; step = concentration with no visible growth; read-out: Hemmkonzentration nach Verdünnung (Verdünnungsreihe) (converted).
From the text: as §1, §2

In the next test the test system is Bacillus subtilis SG 119. Conditions: SG119; I = Bacillus subtilis SG 119; step = concentration with no visible growth; read-out: Hemmkonzentration nach Verdünnung (Verdünnungsreihe) (converted).
From the text: as §1, §2

For a further test, the system named is Staphylococcus aureus. Conditions: IX = Staphylococcus aureus, Laborstämme; step = concentration with no visible growth; read-out: Hemmkonzentration nach Verdünnung (Verdünnungsreihe) (converted).
From the text: as §1, §2

In test [7] the test system is Pseudomonas aeruginosa NCTC 10701. Conditions: NCTC10701; IV = Pseudomonas aeruginosa NCTC 10701; step = concentration with no visible growth; read-out: Hemmkonzentration nach Verdünnung (Verdünnungsreihe) (converted).
From the text: as §1, §2

SMILES strings stand for the structures. In brackets after ≈: the same amount, converted by molar mass.

As for `CCOCc1cc2ncc(C(=O)N[C@@H](C(=O)N[C@@H]3C(=O)N4[C@@H]3SC(C)(C)[C@@H]4C(=O)O)c3ccccc3)c(OC(=O)OCC)c2cc1CC` [Beisp. 6, 6-[D-(-)-α-([4'-Ethoxycarbonyloxy-6'-ethyl-7'-ethoxy-methylen-chinolinoyl-3']-carboxamido)-α-phenylacetamido]-penicillansäure-Natriumsalz], the MIC in test [1] was 0.78 µM (≈ 0.529 µg/mL); in test [2] it was 1.56 µM (≈ 1.06 µg/mL); in the test on Enterokokken, 12.5 µM (≈ 8.48 µg/mL); in test [3], 1.56 µM (≈ 1.06 µg/mL); with Escherichia coli, 1.56 µM (≈ 1.06 µg/mL); in test [4], 6.25 µM (≈ 4.24 µg/mL). Moreover, the MIC in the test on Proteus vulgaris OX 19 was 0.39 µM (≈ 0.265 µg/mL); in test [5], 1.56 µM (≈ 1.06 µg/mL); in the test with Citrobacter freudii, 3.12 µM (≈ 2.12 µg/mL); with Enterobacter cloacae, 3.12 µM (≈ 2.12 µg/mL); in test [6], 6.25 µM (≈ 4.24 µg/mL); in the test on Bacillus subtilis SG 119 it was 1.56 µM (≈ 1.06 µg/mL). The results for the MIC (in the test on Staphylococcus aureus; in [7]) were 12.5 µM (≈ 8.48 µg/mL) and 0.78 µM (≈ 0.529 µg/mL), respectively.
